Columns and labels:
Type in all cases: functional
EKVX = assay: Cytotoxicity against Homo sapiens (human) EKVX assessed as cell growth at 10 uM after 48 hr by SRB assay relative to control; details: read-out: Activity
Hs-578T = assay: Cytotoxicity against Homo sapiens (human) Hs 578T assessed as cell growth at 10 uM after 48 hr by SRB assay relative to control; details: read-out: Activity
KM12 = assay: Cytotoxicity against Homo sapiens (human) KM12 assessed as cell growth at 10 uM after 48 hr by SRB assay relative to control; details: KM12, 48 h, read-out: Activity
SF-268 = assay: Cytotoxicity against Homo sapiens (human) SF268 assessed as cell growth at 10 uM after 48 hr by SRB assay relative to control; details: SF-268, 48 h, read-out: Activity
NCI-H460 = assay: Cytotoxicity against Homo sapiens (human) NCI-H460 assessed as cell growth at 10 uM after 48 hr by SRB assay relative to control; details: NCI-H460, 48 h, read-out: Activity
HOP-62 = assay: Cytotoxicity against Homo sapiens (human) HOP62 assessed as cell growth at 10 uM after 48 hr by SRB assay relative to control; details: HOP-62, 48 h, read-out: Activity
COLO 205 = assay: Cytotoxicity against Homo sapiens (human) COLO205 assessed as cell growth at 10 uM after 48 hr by SRB assay relative to control; details: COLO 205, 48 h, read-out: Activity
HOP-92 = assay: Cytotoxicity against Homo sapiens (human) HOP92 assessed as cell growth at 10 uM after 48 hr by SRB assay relative to control; details: HOP-92, 48 h, read-out: Activity
ACHN = assay: Cytotoxicity against Homo sapiens (human) ACHN assessed as cell growth at 10 uM after 48 hr by SRB assay relative to control; details: read-out: Activity
MOLT-4 = assay: Cytotoxicity against Homo sapiens (human) MOLT4 assessed as cell growth at 10 uM after 48 hr by SRB assay relative to control; details: MOLT-4, 48 h, read-out: Activity
SNB-19 = assay: Cytotoxicity against Homo sapiens (human) SNB19 assessed as cell growth at 10 uM after 48 hr by SRB assay relative to control; details: SNB-19, 48 h, read-out: Activity
NCI-H522 = assay: Cytotoxicity against Homo sapiens (human) NCI-H522 assessed as cell growth at 10 uM after 48 hr by SRB assay relative to control; details: NCI-H522, 48 h, read-out: Activity
LOX IMVI = assay: Cytotoxicity against Homo sapiens (human) LOXIMVI assessed as cell growth at 10 uM after 48 hr by SRB assay relative to control; details: read-out: Activity
BT-549 = assay: Cytotoxicity against Homo sapiens (human) BT549 assessed as cell growth at 10 uM after 48 hr by SRB assay relative to control; details: BT-549, 48 h, read-out: Activity
T47D = assay: Cytotoxicity against Homo sapiens (human) T47D assessed as cell growth at 10 uM after 48 hr by SRB assay relative to control; details: read-out: Activity
SK-MEL-28 = assay: Cytotoxicity against Homo sapiens (human) SK-MEL-28 assessed as cell growth at 10 uM after 48 hr by SRB assay relative to control; details: SK-MEL-28, 48 h, read-out: Activity
NCI-H23 = assay: Cytotoxicity against Homo sapiens (human) NCI-H23 assessed as cell growth at 10 uM after 48 hr by SRB assay relative to control; details: NCI-H23, 48 h, read-out: Activity
SK-OV-3 = assay: Cytotoxicity against Homo sapiens (human) SKOV3 assessed as cell growth at 10 uM after 48 hr by SRB assay relative to control; details: SK-OV-3, 48 h, read-out: Activity
HCT-15 = assay: Cytotoxicity against Homo sapiens (human) HCT15 assessed as cell growth at 10 uM after 48 hr by SRB assay relative to control; details: HCT-15, 48 h, read-out: Activity
OVCAR-3 = assay: Cytotoxicity against Homo sapiens (human) OVCAR3 assessed as cell growth at 10 uM after 48 hr by SRB assay relative to control; details: OVCAR-3, 48 h, read-out: Activity
SW-620 = assay: Cytotoxicity against Homo sapiens (human) SW620 assessed as cell growth at 10 uM after 48 hr by SRB assay relative to control; details: SW-620, 48 h, read-out: Activity
UACC-257 = assay: Cytotoxicity against Homo sapiens (human) UACC257 assessed as cell growth at 10 uM after 48 hr by SRB assay relative to control; details: UACC-257, 48 h, read-out: Activity
NCI-H226 = assay: Cytotoxicity against Homo sapiens (human) NCI-H226 assessed as cell growth at 10 uM after 48 hr by SRB assay relative to control; details: NCI-H226, 48 h, read-out: Activity
MCF7 = assay: Cytotoxicity against Homo sapiens (human) MCF7 assessed as cell growth at 10 uM after 48 hr by SRB assay relative to control; details: MCF7, 48 h, read-out: Activity
786-0 = assay: Cytotoxicity against Homo sapiens (human) 786-0 assessed as cell growth at 10 uM after 48 hr by SRB assay relative to control; details: 786-0, 48 h, read-out: Activity
SK-MEL-2 = assay: Cytotoxicity against Homo sapiens (human) SK-MEL-2 assessed as cell growth at 10 uM after 48 hr by SRB assay relative to control; details: SK-MEL-2, 48 h, read-out: Activity
MDA-MB-435 = assay: Cytotoxicity against Homo sapiens (human) MDA-MB-435 assessed as cell growth at 10 uM after 48 hr by SRB assay relative to control; details: MDA-MB-435, 48 h, read-out: Activity
HCC 2998 = assay: Cytotoxicity against Homo sapiens (human) HCC2998 assessed as cell growth at 10 uM after 48 hr by SRB assay relative to control; details: HCC 2998, 48 h, read-out: Activity
SN12C = assay: Cytotoxicity against Homo sapiens (human) SN12C assessed as cell growth at 10 uM after 48 hr by SRB assay relative to control; details: read-out: Activity
SF-539 = assay: Cytotoxicity against Homo sapiens (human) SF539 assessed as cell growth at 10 uM after 48 hr by SRB assay relative to control; details: SF-539, 48 h, read-out: Activity
[1] = Cytotoxicity against Homo sapiens (human) NCI-ADR-RES assessed as cell growth at 10 uM after 48 hr by SRB assay relative to control; details: read-out: Activity
HCT-116 = assay: Cytotoxicity against Homo sapiens (human) HCT116 assessed as cell growth at 10 uM after 48 hr by SRB assay relative to control; details: HCT-116, 48 h, read-out: Activity
OVCAR-5 = assay: Cytotoxicity against Homo sapiens (human) OVCAR5 assessed as cell growth at 10 uM after 48 hr by SRB assay relative to control; details: OVCAR-5, 48 h, read-out: Activity

SMILES	growth at 10 µM (EKVX) [%]	growth at 10 µM (Hs-578T) [%]	growth at 10 µM (KM12) [%]	growth at 10 µM (SF-268) [%]	growth at 10 µM (NCI-H460) [%]	growth at 10 µM (HOP-62) [%]	growth at 10 µM (COLO 205) [%]	growth at 10 µM (HOP-92) [%]	growth at 10 µM (ACHN) [%]	growth at 10 µM (MOLT-4) [%]	growth at 10 µM (SNB-19) [%]	growth at 10 µM (NCI-H522) [%]	growth at 10 µM (LOX IMVI) [%]	growth at 10 µM (BT-549) [%]	growth at 10 µM (T47D) [%]	growth at 10 µM (SK-MEL-28) [%]	growth at 10 µM (NCI-H23) [%]	growth at 10 µM (SK-OV-3) [%]	growth at 10 µM (HCT-15) [%]	growth at 10 µM (OVCAR-3) [%]	further results
CC1=NN(C(=O)c2sc3nnc(-c4ccccc4)c(-c4ccccc4)c3c2O)C(=O)C1	74.3	89.6	71.3	88.3	52.2	82.8	111	69.5	73.2	67.8	60.7	87.4	97.6	104	82.2	83.5	82.6	90.6	49	84.7	growth at 10 µM (SW-620): 79.4%; growth at 10 µM (UACC-257): 86.8%; growth at 10 µM (NCI-H226): 91.9%; growth at 10 µM (MCF7): 85.1%; growth at 10 µM (786-0): 65.9%; growth at 10 µM (SK-MEL-2): 110%; growth at 10 µM (MDA-MB-435): 83.7%; growth at 10 µM (HCC 2998): 59.7%; growth at 10 µM (SN12C): 93.8%; growth at 10 µM (SF-539): 109%; growth at 10 µM [1]: 16%; growth at 10 µM (HCT-116): 89.8%; growth at 10 µM (OVCAR-5): 117%
Oc1c(-c2nnc(SCc3ccccc3)o2)sc2nnc(-c3ccccc3)c(-c3ccccc3)c12	122	135	107	103	111	105	122	52.5	104	86	103	88.5	84	107	104	98.9	106	100	93.6	126	growth at 10 µM (SW-620): 109%; growth at 10 µM (UACC-257): 134%; growth at 10 µM (NCI-H226): 101%; growth at 10 µM (MCF7): 82.2%; growth at 10 µM (786-0): 105%; growth at 10 µM (SK-MEL-2): 93.1%; growth at 10 µM (MDA-MB-435): 99.4%; growth at 10 µM (HCC 2998): 96.5%; growth at 10 µM (SN12C): 99.5%; growth at 10 µM (SF-539): 122%; growth at 10 µM [1]: 93.5%; growth at 10 µM (HCT-116): 83.3%; growth at 10 µM (OVCAR-5): 98.8%
Oc1c(-c2nnc(-c3ccccc3)o2)sc2nnc(-c3ccccc3)c(-c3ccccc3)c12	94.1	97	72.3	85.5	39.8	73.7	102	81.7	67	47.9	57.2	97.2	65.7	74.9	81.1	85.2	90.4	83	36.6	72.4	growth at 10 µM (SW-620): 64.4%; growth at 10 µM (UACC-257): 99.8%; growth at 10 µM (NCI-H226): 85%; growth at 10 µM (MCF7): 58%; growth at 10 µM (786-0): 79.9%; growth at 10 µM (SK-MEL-2): 106%; growth at 10 µM (MDA-MB-435): 78.4%; growth at 10 µM (HCC 2998): 70.4%; growth at 10 µM (SN12C): 61.4%; growth at 10 µM (SF-539): 68.5%; growth at 10 µM [1]: 18.8%; growth at 10 µM (HCT-116): 47.4%; growth at 10 µM (OVCAR-5): 106%
CC(=O)Oc1c(C2=NN(C(C)=O)C(c3ccc(F)cc3)O2)sc2nnc(-c3ccccc3)c(-c3ccccc3)c12 (configuration not stated)	113	120	81.7	89.6	101	121	117	46.2	72	55.1	82.6	80.4	99	65.3	90	82.1	103	97.6	61.1	96.3	growth at 10 µM (SW-620): 97.4%; growth at 10 µM (UACC-257): 113%; growth at 10 µM (NCI-H226): 92.4%; growth at 10 µM (MCF7): 73.7%; growth at 10 µM (786-0): 94.7%; growth at 10 µM (SK-MEL-2): 99.9%; growth at 10 µM (MDA-MB-435): 79.6%; growth at 10 µM (HCC 2998): 82.8%; growth at 10 µM (SN12C): 80.2%; growth at 10 µM (SF-539): 104%; growth at 10 µM [1]: 85.3%; growth at 10 µM (HCT-116): 80.5%; growth at 10 µM (OVCAR-5): 95.3%

Source: ChEMBL document CHEMBL3045770, “Design and synthesis of some thieno[2,3-c]pyridazine derivatives of expected anticancer activity” (2013)
